# Key:
# HepG2 cells = assay: total Hcys in HepG2 cells (ELISA); format: cell-based, human; settings: 5 or 10 μM, 12 h
# Protocol: Fig. 3 The effect of CH004 on the activity of endogenous hCBS in cells. a CH004 dose-dependently elevates the levels of Hcys in HepG2 and HEK293T cells. HepG2 cells or HEK293T cells were incubated with indicated CH004 or DMSO (control) for 12 h. The amount of total Hcys in cells was measured by ELISA using Axis® Homocysteine EIA kit (IBL, AX51301) (“Materials and Methods” section). […] HepG2 cells were treated with indicated DMSO, CH004 or HA for 8 h before the staining with AzMC probe. The amount of the H2S (blue) was quantified and is shown in (c). Bars, 50 μm. Control (CTR), DMSO group (100%). A representative fluorescence image from three independent experiments is shown. Means ± SDS (n = 3). d CH004 elevates Hcys in the peripheral blood of rats. The total Hcys of the blood samples collected from the anesthetized rats at the 75 min time point (Materials and Methods) were quantified by ELISA (see above). Means ± SDS (n = 6).
# HepG2 or HEK293T cells were seeded in poly-D-Lys-coated 6-well plates at a density of ∼ 5 × 10^5 cells per well for one day, treated with DMSO or various concentrations of compounds for another 12 h before the collection by scraping or trypsinization. […]
# [1] = tested on: rat hemorrhagic shock model; assay: hemorrhagic shock rat model; format: in vivo; settings: 3 mg/kg intraperitoneal
# Protocol: Fig. 3 The effect of CH004 on the activity of endogenous hCBS in cells. a CH004 dose-dependently elevates the levels of Hcys in HepG2 and HEK293T cells. HepG2 cells or HEK293T cells were incubated with indicated CH004 or DMSO (control) for 12 h. The amount of total Hcys in cells was measured by ELISA using Axis® Homocysteine EIA kit (IBL, AX51301) (“Materials and Methods” section). […] HepG2 cells were treated with indicated DMSO, CH004 or HA for 8 h before the staining with AzMC probe. The amount of the H2S (blue) was quantified and is shown in (c). Bars, 50 μm. Control (CTR), DMSO group (100%). A representative fluorescence image from three independent experiments is shown. […] The total Hcys of the blood samples collected from the anesthetized rats at the 75 min time point (Materials and Methods) were quantified by ELISA (see above). […]
# Figure S10. […] The hemorrhagic shock model was constructed by blood withdrawing (BW) from the carotid artery of anesthetized male Sprague-Dawley rats (280-320 g), and the mean arterial blood pressure (MAP) was monitored by an MP30B-CE pressure transducer (BIOPAC, Santa Barbara, CA, USA). […] Then, 15 min later, CH004 (3 mg/kg), PAG (50 mg/kg) or vehicle (2% DMSO in saline) was intraperitoneally administered to the rats, and the MAP was monitored continuously for another 45 min. MAP was continually recorded during the experiments. […]
# HCT116 cells = assay: cell viability (CellTiter 96 Aqueous One); format: cell-based
# Protocol: (§1) To measure cell viability and cytotoxicity, HepG2, HEK293T, Huh-7, H22, Panc-28, HCT116 and MDA-MB-231 cells were seeded at a density of ~ 2 × 10^4 cells per well in 96-well plates (Coring, NY, USA) for one day, followed by incubation with DMSO or various concentrations of tested compound for indicated times. Then, the cells were collected to measure the cell viability using the CellTiter 96® Aqueous One Solution Cell Proliferation Assay (Promega, G3581) according to the standard protocols.
# (§2) Figure S11. The effects of CH004 on cell viability in various types of cancer cell lines. (A) Dose-dependent curves of CH004 on cell viability of HepG2 cells (▲), HEK293T cells (○). Percentages of cell viability of CH004 obtained in Figure 4a were fitted to the non-linear equation using GraphPad Prism 5 to get the IC50 values of CH004 in respective cell lines. Means ± SDs (n=3). […] (B) MDA-MB-231 (breast cancer cell cline), HCT116 (colon cancer), Panc-28 cells (pancreas cancer), Huh7 cells (hepatocellular carcinoma) and H22 (mouse liver cancer) were incubated with DMSO (control) or indicated concentrations of CH004 for 24 h in a 96-well plate before assessing cell viability using the CellTiter96® Aqueous One Solution Cell Proliferation Assay (Promega). The data are shown as percentages of control (DMSO, 100%). Means ± SDs (n=3). (C) The dose-dependent curve of CH004 on cell viability. Percentages of cell viability obtained in B were fitted to the non-linear equation using GraphPad Prism 5 to get the IC50 values of CH004 in respective cell lines. […] The experiments were independently repeated twice in triplicates and a representative experiment is shown.
# Huh7 cells = assay: cell viability (CellTiter 96 Aqueous One); format: cell-based
# Protocol: as §1, §2
# MDA-MB-231 cells = assay: cell viability (CellTiter 96 Aqueous One); format: cell-based; settings: Homo sapiens, MDA-MB-231, 24 h
# Protocol: as §1, §2
# Panc-28 cells = assay: cell viability (CellTiter 96 Aqueous One); format: cell-based; settings: 24 h
# Protocol: as §1, §2
# [2] = viable cells (Annexin V-PI double negative) with CH004 and ferroptosis inhibitors, flow cytometry; settings: human
smiles,measurement,setting,value
"Cn1nc(Cc2ccccc2)nc2c(=O)n(C)c(=O)nc1-2 [CH004, 3-benzyl-1,6-dimethylpyrimido[5,4-e][1,2,4]triazine-5,7(1H,6H)-dione]",increase of Hcys,HepG2 cells,~ 2 fold
same,increase of the level of Hcys in blood,[1]; 75 min time point,~ 2 fold
same,effect on mean arterial pressure (MAP),[1]; indicator for in vivo CSE inhibition,does not affect
same,IC50,HCT116 cells; 24 h,4 µM
same,IC50,"HCT116 cells; Homo sapiens, HCT-116, 24 h",4.1 ± 1.2 µM
same,IC50,Huh7 cells; 24 h,~12 µM
same,IC50,"Huh7 cells; Homo sapiens, Huh-7, 24 h",12.4 ± 1.6 µM
same,IC50,MDA-MB-231 cells,25.8 ± 3.2 µM
same,IC50,Panc-28 cells,7.2 ± 0.5 µM
same,"viability at 24 h, 15 μM",[2],30.8%

# From paper PMC6158189, “A pharmacological probe identifies cystathionine β-synthase as a new negative regulator for ferroptosis” (Cell Death & Disease, 2018)
